Consider six molecules from PMC9571953, “Discovery of New VEGFR-2 Inhibitors: Design, Synthesis, Anti-Proliferative Evaluation, Docking, and MD Simulation Studies” (Molecules, 2022).

One assay deals with HCT-116. Briefly: In vitro anti-proliferative activity (MTT). The class given is cell-based. To be noted: Homo sapiens, mean ± S.D. of three experiments, read-out: In Vitro Cytotoxicity IC50 HCT-116. The protocol: (§1) The latter cells were selected owing to their VEGFR-2 overabundance.
(§2) Was conducted the experiment by the MTT procedure. In-depth discussions have been held in the Supplementary Data. […]
(§3) ✓ In vitro anti-proliferative activity against HepG-2 and HCT-116
(§4) The cells were cultured in RPMI-1640 medium supplemented with 10% fetal bovine serum (FBS), penicillin (100 unit /mL) and streptomycin sulphate (100µg/mL) at 37 °C in a 5% CO2 incubator.
(§5) Then, cells were dropped in 96-well plates at a density of 3-8 × 10^3 cells/well and incubated for two days in a 5% CO2 incubator at 37 °C. Then, the cells were treated with the synthesized compounds and the cell cultures were continued incubated for 24 h. However, Different concentrations of the compound under test (0.0, 5.0, 12.5, 25.0 and 50 mg/ml) were added to the cell monolayer. Then, (3-[4,5-dimethylthiazol-2-yl]- 2,5-diphenyltetrazolium bromide) MTT solution (20 µl, 5mg/mL) was added to each well and incubated for additional 4 h. The formed purple crystals of MTT-formazan were dissolved in 100 µl DMSO each well; the absorbance of each well was measured at 570 nm using a plate reader (EXL 800, USA). All compounds were tested three times. The relative cell viability in percentage was calculated. The results for IC50 values of the active compounds are […]
(§6) The data represented the mean of three independent experiments in triplicate and were expressed as means ± SD. […]

For a further assay, the system named is HepG-2. Briefly: In vitro anti-proliferative activity (MTT). It counts as cell-based. The conditions noted are these: Homo sapiens, HepG2, mean ± S.D. of three experiments, read-out: In Vitro Cytotoxicity IC50 HepG-2. The protocol:
as §1, §2, §3, §4, §5, §6

For assay [1], the system named is human tumor necrosis factor alpha (TNF-α). Briefly: In vitro immunomodulatory assay, TNF-α. The class given is cell-based. To be noted: HCT-116 cells. The protocol:
(§7) The immunomodulatory potentialities of congeners 6 and 7 on HCT-116 cells was also assayed. Two well-defined immunity markers, human tumor necrosis factor alpha (TNF-α), and interleukin 6 (IL6), were measured following the treatment with each compound. In addition, dexamethasone was co-assayed as a reference drug. A considerable reduction in both markers was noticed regarding the two compounds (Table 4).

The next assay concerns interleukin 6 (IL6). Briefly: In vitro immunomodulatory assay, IL6. The class given is cell-based. The conditions noted are these: HCT-116 cells. The protocol: as §7
The next assay deals with Human VEGFR-2 (Homo sapiens, UniProt P35968). As to the kind of experiment: In vitro VEGFR-2 enzyme inhibition assay (ELISA kit). (In an ELISA, binding on a coated surface is turned into a signal by an enzyme label.)
Sequence of Human VEGFR-2 (P35968 20-1356): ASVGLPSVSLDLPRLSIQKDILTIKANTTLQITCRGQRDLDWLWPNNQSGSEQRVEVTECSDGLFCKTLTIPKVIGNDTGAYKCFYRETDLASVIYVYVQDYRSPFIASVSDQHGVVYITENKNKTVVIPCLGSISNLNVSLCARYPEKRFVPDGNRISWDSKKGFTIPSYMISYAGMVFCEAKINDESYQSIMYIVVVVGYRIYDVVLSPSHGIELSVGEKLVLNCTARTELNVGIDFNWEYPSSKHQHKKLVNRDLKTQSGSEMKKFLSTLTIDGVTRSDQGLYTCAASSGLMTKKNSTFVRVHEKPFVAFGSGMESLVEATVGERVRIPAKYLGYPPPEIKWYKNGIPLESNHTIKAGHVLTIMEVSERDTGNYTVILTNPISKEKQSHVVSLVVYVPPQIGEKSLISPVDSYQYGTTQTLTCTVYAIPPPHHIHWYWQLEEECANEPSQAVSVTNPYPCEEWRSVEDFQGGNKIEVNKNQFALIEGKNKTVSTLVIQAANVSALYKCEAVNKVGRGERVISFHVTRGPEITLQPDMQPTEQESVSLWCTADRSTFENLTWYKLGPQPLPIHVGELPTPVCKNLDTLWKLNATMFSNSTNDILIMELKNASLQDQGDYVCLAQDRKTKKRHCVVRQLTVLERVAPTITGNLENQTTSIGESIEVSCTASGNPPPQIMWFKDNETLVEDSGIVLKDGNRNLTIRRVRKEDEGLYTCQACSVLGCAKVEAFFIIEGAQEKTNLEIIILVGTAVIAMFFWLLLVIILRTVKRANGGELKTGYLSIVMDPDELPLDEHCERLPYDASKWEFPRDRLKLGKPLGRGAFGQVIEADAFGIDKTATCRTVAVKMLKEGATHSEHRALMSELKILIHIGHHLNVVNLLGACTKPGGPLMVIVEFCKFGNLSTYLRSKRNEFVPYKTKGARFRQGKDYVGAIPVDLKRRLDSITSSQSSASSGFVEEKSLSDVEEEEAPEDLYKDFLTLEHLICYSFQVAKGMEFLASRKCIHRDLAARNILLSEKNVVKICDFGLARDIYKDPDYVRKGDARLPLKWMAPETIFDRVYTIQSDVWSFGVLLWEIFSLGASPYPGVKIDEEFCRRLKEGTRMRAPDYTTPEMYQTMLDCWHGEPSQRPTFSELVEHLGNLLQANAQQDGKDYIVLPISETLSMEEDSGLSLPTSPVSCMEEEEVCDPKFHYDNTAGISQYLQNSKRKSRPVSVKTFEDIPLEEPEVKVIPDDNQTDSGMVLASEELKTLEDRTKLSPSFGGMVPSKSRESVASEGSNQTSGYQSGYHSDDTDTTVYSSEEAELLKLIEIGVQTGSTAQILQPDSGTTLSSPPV
The subject of another assay is VEGFR-2. To be noted: Reported nicotinamide VEGFR-2 inhibitor, Figure 2; no reference given; cited from earlier work.
Assay [2] deals with HCT-116 cells. Briefly: Flow cytometry cell cycle analysis (PI staining). The class given is cell-based. To be noted: HCT-116, 9.3 µM of compound 6, 48 h. The protocol:
It was clear from the obtained results that member 6 arrested cell cycle progression at the phase G2-M, as it caused a significant elevation of the cell levels by 35.84% versus 12.91% accumulation of the control cells.
Were conducted propidium iodide (PI) staining and flow cytometry analysis.. In-depth discussions have been held in the Supplementary Data. […]
and were expressed as means ± SD. […]
HCT-116 cells were grown in six-well plates (each one contains 2 x 10^5 cells per well) containing 10% foetal bovine serum and incubated for 24 h at 37 °C and 5% CO2. The medium was replaced with (DMSO 1% v/v) containing the 9.3 µM of compound 6, then incubated for 48 h, collected and washed with cold phosphate buffered saline (PBS). After fixation of the collected cells with ice-cold […] ethanol (70%), the cells were rinsed with PBS then stained with the DNA fluorochrome PI, kept for 15 min at 37 °C. Then samples were analyzed with a FACS Caliber flow cytometer. […]

For assay [3], the system named is HCT-116 cells. As to the kind of experiment: Annexin-V/propidium iodide apoptosis assay. It counts as cell-based. To be noted: HCT-116, 9.3 µM of compound 6, 48 h. The method, then:
Both extrinsic and intrinsic apoptosis induced by compound 6 in HCT-116 cells was assayed through Annexin-V/propidium iodide staining assay. Marked induction of both early and late apoptosis was observed upon treating HCT-116 cells with 6. […]
Apoptotic activity of compound 6 was evaluated using Annexin V-FITC/PI apoptosis detection kit.
HCT-116 cells ([…]) were seeded and incubated with compound 6 for 48 h, trypsinized, collected and washed with phosphate-buffered saline (PBS) several times; […] cells were stained with […]
Annexin V fluorescein isothiocyanate (FITC) and counterstained with propidium iodide (PI) for 15 min at 37 °C in the dark using the apoptosis detection kit (BD Biosciences, San Jose, CA) according to the manufacturer's protocol. Then, Annexin V-FITC and PI binding were analyzed by a FACS […]
Crystal structure of VEGFR-2 [PDB ID: 2OH4, resolution: 2.07 Å] was obtained from Protein Data Bank. The docking investigation was accomplished using MOE 2014 software. At first, the crystal structure of VEGFR-2 was prepared by removing water molecules. Only one chain was retained beside the co-crystallized ligand. Then, the selected chain was protonated and subjected to minimization of energy process. Next, the active site of the target protein was defined.
Structures of the synthesized compounds and sorafenib (as reference standard) were drawn using ChemBioDraw Ultra 14.0 and saved as MDL-SD format. Such file was opened using MOE to display the 3D structures which were protonated and subjected to energy minimization. Formerly, validation of the docking process was performed by docking the co-crystallized ligand against the isolated pocket of active site. The produced RMSD value indicated the validity of process. Finally, docking of the tested compounds was done through the dock option inserted in compute window.
For each docked molecule, 30 docked poses were produced using ASE for scoring function and force field for refinement. The results of the docking process were then visualized using Discovery […]
ADMET descriptors (absorption, distribution, metabolism, excretion and toxicity) of the compounds were determined using Discovery studio 4.0. At first, the CHARMM force field was applied then the tested compounds were prepared and minimized according to the preparation of small molecule protocol. Then ADMET descriptors protocol was applied to carry out these studies.
The toxicity parameters of the synthesized compounds were calculated using Discovery studio 4.0.
Sorafenib was used as a reference drug. At first, the CHARMM force field was applied then the […]

Description for Human VEGFR-2: The ability of the four synthesized congeners to inhibit the VEGFR-2 enzyme in HCT-116 cells was also evaluated.
✓ Assessment of VEGFR-2 inhibition

By IC50 is commonly meant the concentration needed to halve the response being measured. Regarding `O=C(NN=Cc1ccccc1O)c1ccc(NC(=O)c2cccnc2)cc1` [Compound 7, N-{4-[2-(2-Hydroxybenzylidene)hydrazine-1-carbonyl]phenyl}nicotinamide], the IC50 in the assay with HCT-116 is 15.9 ± 0.041 µM; in the assay with HepG-2 it was 10.2 ± 0.035 µM; against Human VEGFR-2 it was 0.129 ± 0.00832 µM. Besides, the “% Inhibition of TNF-α pg/mL” value in assay [1] stood at 60.54%. The “% Inhibition of IL6 pg/mL” value in the assay with interleukin 6 (IL6) is on record as 52.75%.
Take `O=C(NN=Cc1c[nH]c2ccccc12)c1ccc(NC(=O)c2cccnc2)cc1` [Compound 8, N-{4-[2-((1H-Indol-3-yl)methylene)hydrazine-1-carbonyl]phenyl}nicotinamide]: the IC50 with HCT-116 amounted to 20.5 ± 0.052 µM; with HepG-2, 16.03 ± 0.051 µM; against Human VEGFR-2, 0.23 ± 0.0102 µM.
As for `C/C(=N\Nc1ccccc1)c1ccc(NC(=O)c2cccnc2)cc1` [II], the IC50 in the assay with VEGFR-2 was 0.0231 µM.
Take `O=C(NN=Cc1ccc(Cl)cc1)c1ccc(NC(=O)c2cccnc2)cc1` [Compound 6, N-{4-[2-(4-Chlorobenzylidene)hydrazine-1-carbonyl]phenyl}nicotinamide]: the IC50 in the assay on HCT-116 stood at 9.3 ± 0.02 µM. Besides, the IC50 with HepG-2 is 7.8 ± 0.025 µM. In the assay on HCT-116 cells [2], the “% G0-G1” value was 36.71%, the “% G2-M” value is 35.84%, the “% Pre-G1” value is 16.93% and the “% S” value stood at 27.45%. Moreover, in the assay on HCT-116 cells [3], the “Apoptosis Early” value came out at 5.78%, the “Apoptosis Late” value is given as 9.75%, the “Apoptosis Total” value amounted to 16.93 and the Necrosis came out at 1.40%. Besides, in assay [1], the “% Inhibition of TNF-α pg/mL” value is 66.42%. Also, the “% Inhibition of IL6 pg/mL” value with interleukin 6 (IL6) turned out to be 57.34%. In addition, the midpoint of inhibition against Human VEGFR-2, the IC50, lay at 0.0608 ± 0.00381 µM.
In the case of `C[C@@H]1C[C@H]2[C@@H]3CCC4=CC(=O)C=C[C@]4(C)[C@@]3(F)[C@@H](O)C[C@]2(C)[C@@]1(O)C(=O)CO` [Dexamethasone, reference compound], the “% Inhibition of TNF-α pg/mL” value in assay [1] was determined as 82.47%. The “% Inhibition of IL6 pg/mL” value in the assay with interleukin 6 (IL6) was 93.15%.
In the case of `CC(=NNC(N)=O)c1ccc(NC(=O)c2cccnc2)cc1` [Compound 10, N-{4-[1-(2-Carbamoylhydrazineylidene)ethyl]phenyl}nicotinamide], the IC50 in the assay with HCT-116 was 24.2 ± 0.06 µM; in the assay with HepG-2, 17.6 ± 0.048 µM; against Human VEGFR-2, 0.0636 ± 0.00331 µM.
